# According to patent US10683318B2, “Scalable synthesis of reduced toxicity derivative of amphotericin B” (priority 2014, dated 2020):
# Where two headings read alike, the source gives them in different places.
# Columns and labels:
# [1] = Isothermal titration calorimetry with POPC LUVs containing 10% ergosterol; assay type: binding; conditions: ITC; for Ergosterol binding (net exotherm vs sterol-free LUVs): result in words
# Experimental: (§1) In an optimized isothermal titration calorimetry (ITC)-based assay, an aqueous solution of AmB was titrated with a suspension of large unilamellar vesicles (LUVs) comprised of only 1-palmitoyl-2-oleoyl-sn-glycero-3-phosphocholine (POPC), and the net exotherm was recorded. The titration was repeated using POPC LUVs containing 10% ergosterol. […] The titration was repeated using C2′epiAmB. […] The ITC assay was also conducted with cholesterol in place of ergosterol.
# (§2) Experiments were performed using a NanoITC isothermal titration calorimeter (TA Instruments, Wilmington, Del.). Solutions of the compounds to be tested were prepared by diluting a 60.0 mM stock solution of the compound in DMSO to 600 μM with K buffer (5.0 mM HEPES/KHEPES, pH=7.4). The final DMSO concentration in the solution was 1% v/v. Large unilamellar vesicles comprised of only 1-palmitoyl-2-oleoyl-sn-glycero-3-phosphocholine (POPC LUVs) were prepared and phosphorus and ergosterol content was quantified as described below. The LUV solutions were diluted with buffer and DMSO to give a final phospholipid concentration of 12.0 mM in a 1% DMSO/K buffer solution. Immediately prior to use, all solutions were incubated at 37° C. for 30 minutes and degassed under vacuum at 37° C. for 10 minutes. The reference cell of the instrument (volume=0.190 mL) was filled with a solution of 1% v/v DMSO/K buffer.
# Palmitoyl oleoyl phosphatidylcholine (POPC) was obtained as a 20 mg/mL solution in CHCl3 from Avanti Polar Lipids (Alabaster, Ala.) and was stored at −20° C. under an atmosphere of dry argon and used within 1 month. A 4 mg/mL solution of ergosterol in CHCl3 was prepared monthly and stored at 4° C. under an atmosphere of dry argon. Prior to preparing a lipid film, the solutions were warmed to ambient temperature to prevent condensation from contaminating the solutions. A 13×100 mm test tube was charged with 800 μL POPC and 230 μL of the ergosterol solution. For cholesterol-containing liposomes, a 13×100 mm test tube was charged with 800 μL POPC and 224 μL of the […] solution. […]
# [2] = Isothermal titration calorimetry with POPC LUVs containing 10% cholesterol; assay type: binding; conditions: ITC
# Experimental: as §1
# as §2, with “buffer. […]” for “buffer.”
# [3] = Isothermal titration calorimetry with sterol-free POPC LUVs; assay type: binding; conditions: ITC, no sterol (POPC LUVs), 600 μM compound, 25° C.
# Experimental: as §1
# as §2, with “buffer. […]” for “buffer.”
# S. cerevisiae = experiment: Broth microdilution MIC assay, S. cerevisiae; assay type: cell-based; conditions: Saccharomyces cerevisiae, 30° C., 24 hours, no visible growth
# Experimental: Liquid cultures were incubated at 30° C. on a rotary shaker and solid cultures were maintained at 30° C. in an incubator.
# (§3) The protocol for the broth microdilution assay was adapted from the Clinical and Laboratory Standards Institute document M27-A2. […] 50 mL of YPD media was inoculated and incubated overnight at either 30° C. (S. cerevisiae) or 37° C. (C. albicans) in a shaker incubator. The cell suspension was then diluted with YPD to an OD600 of 0.10 (˜5×10^5 cfu/mL) as measured by a Shimadzu (Kyoto, Japan) PharmaSpec UV-1700 UV/Vis spectrophotometer. The solution was diluted 10-fold with YPD, and 195 μL aliquots of the dilute cell suspension were added to sterile Falcon (Franklin Lakes, N.J.) Microtest 96-well plates in triplicate. Compounds may be prepared as 400 μM stock solutions in DMSO and serially diluted to the following concentrations with DMSO: 1600, 1200, 800, 400, 320, 240, 200, 160, 120, 80, 40, 20, 10 and 5 μM. 5 μL aliquots of each solution were added to the 96-well plate in triplicate, with each column representing a different concentration of the test compound. […] This 40-fold dilution gave the following final concentrations: 50, 40, 30, 20, 10, 8, 6, 4, 1, 0.5, 0.25 and 0.125 μM. The plates were covered and incubated at 30° C. (S. cerevisiae) or 37° C. (C. albicans) for 24 hours prior to analysis. […]
# C. albicans [4] = experiment: Broth microdilution MIC assay, C. albicans; assay type: cell-based; conditions: Candida albicans, 37° C., 24 hours, no visible growth
# Experimental: C. albicans was cultured in a similar manner to S. cerevisiae except both liquid and solid cultures were incubated at 37° C.
# as §3
# [5] = test system: primary human renal proximal tubule epithelial cells; experiment: WST-8 cell proliferation assay on primary RPTECs; assay type: cell-based; conditions: concentration causing 90% loss of cell viability of primary human RPTECs, 24 hours
# Experimental: Primary human renal proximal tubule epithelial cells (RPTECs) were purchased from ATCC (Manassas, Va.) and immediately cultured upon receipt. Complete growth media was prepared using renal epithelial cell basal medium (ATCC, PCS-400-030), renal epithelial cell growth kit (ATCC, PCS-400-040), and penicillin-streptomycin (10 units/mL and 10 μg/mL). Complete media was stored at 4° C. in the dark and used within 28 days. Primary RPTECs were grown in CO2 incubator at 37° C. with an atmosphere of 95% air/5% CO2.
# WST-8 cell proliferation assay kit (10010199) was purchased from Cayman Chemical Company (Ann Arbor, Mich.) and stored at −20° C. and used within 6 months of receipt. WST-8 reagent and electron mediator solution were thawed and mixed to prepare the WST-8 reagent solution. The solution was stored at −20° C. and used within one week.
# A suspension of primary RPTECs in complete growth media was brought to a concentration of 1×10^5 cells/mL. A 96-well plate was seeded with 99 μL of the cell suspension and incubated at 37° C. with an atmosphere of 95% air/5% CO2 for 3 hours. Positive and negative controls were prepared by seeding with 100 μL of the cell suspension or 100 μL of the complete media. […] Following incubation, the 96-well plate was mixed in a shaking incubator at 200 rpm for 1 minute and absorbances were read at 450 nm using a Biotek H1 Synergy Hybrid Reader (Winooski, Vt.). […]
# C. albicans [6] = experiment: Mouse model of disseminated candidiasis; assay type: in vivo; conditions: neutropenic mice, single i.p. 16 mg/kg 2 hours post infection, kidneys at 24 hours post infection
# Experimental: The antifungal efficacy of C2′epiAmB was tested in a mouse model of disseminated candidiasis. In this experiment neutropenic mice were infected with C. albicans via their tail veins, and then 2 hours post infection the mice were treated with a single intraperitoneal injection of 16 mg/kg AmB or C2′epiAmB. Then at 24 hours post infection the mice were sacrificed, and the fungal burden present in their kidneys was quantified.
# healthy mice = experiment: Acute toxicity, single intravenous administration to healthy mice; assay type: in vivo; conditions: single i.v.
# Experimental: In a separate experiment, acute toxicity was determined by single intravenous administration of AmB or C2′epiAmB to healthy mice, followed by monitoring for lethality.
# human red blood cells [7] = conditions: 2 h, pH 7.4
# Experimental: (§4) Whole human blood (sodium heparin) was purchased from Bioreclamation LLC (Westbury, N.Y.) and stored at 4° C. and used within two days of receipt. To a 2.0 mL Eppendorf tube, 1 mL of whole human blood was added and centrifuged at 10,000 g for 2 minutes. The supernatant was removed and the erythrocyte pellet was washed with 1 mL of sterile saline and centrifuged at 10,000 g for 2 minutes. The saline wash was repeated for a total of three washes. The erythrocyte pellet was suspended in 1 mL of RBC buffer (10 mM NaH2PO4, 150 mM NaCl, 1 mM MgCl2, pH 7.4) to form the erythrocyte stock suspension.
# (§5) Compounds were prepared as 1.03 min (AmB) or 12.8 min (C2′epiAmB) stock solutions in DMSO and serially diluted to the following concentrations with DMSO: 7689, 5126, 2563, 2050, 1538, 1025, 769, 513, 384, 256, 205, 154, 103, 77, 51, 26 μM. […] Positive and negative controls were prepared by adding 1 μL of DMSO to MilliQ water or RBC buffer, respectively to 0.2 mL PCR tube. To each PCR tube, 0.63 μL of the erythrocyte stock suspension was added and mixed by inversion. The samples were incubated at 37° C. for 2 hours. The samples were mixed by inversion and centrifuged at 10,000 g for 2 minutes. […] Absorbances were read at 540 nm using a Biotek H1 Synergy Hybrid Reader (Winooski, Vt.). […]
# (§6) Percent hemolysis was determined according to the following equation: […]
# human red blood cells [8] = experiment: Minimum hemolysis concentration (MHC) assay; conditions: concentration causing 90% hemolysis of human red blood cells, 37° C., 2 hours
# Experimental: as §4, §5, §6
Compound,"Total exotherm ([1]; POPC LUVs with 10% ergosterol, 600 μM compound, 25° C.) [µcal]",Ergosterol binding (net exotherm vs sterol-free LUVs) [1],"Total exotherm ([2]; POPC LUVs with 10% cholesterol, 600 μM compound, 25° C.) [µcal]",Cholesterol binding ([2]; result in words),Total exotherm [3] [µcal],MIC (S. cerevisiae) [µM],MIC (C. albicans [4]) [µM],minimum toxic concentration (MTC) [5],Reduction of fungal burden relative to AmB (C. albicans [6]) [log units],Reduction of fungal burden in kidneys compared with AmB (C. albicans [6]; result in words),Lethality (healthy mice; up to 16 mg/kg),minimum hemolytic concentration (MHC) (human red blood cells [7]) [µM],Lethality (healthy mice; 4 mg/kg),minimum hemolytic concentration (MHC) (human red blood cells [8]) [µM]
C[C@@H]1[C@H](O)[C@@H](C)/C=C/C=C/C=C/C=C/C=C/C=C/C=C/[C@H](O[C@@H]2O[C@H](C)[C@@H](O)[C@H](N)[C@H]2O)C[C@@H]2O[C@](O)(C[C@@H](O)C[C@@H](O)[C@H](O)CC[C@@H](O)C[C@@H](O)CC(=O)O[C@H]1C)C[C@H](O)[C@H]2C(=O)O [C2′epiAmB],-15.24 ± 1.66,binds to ergosterol,-6.43 ± 2.80,not found to bind to cholesterol,-6.70 ± 0.11,2,2,no evidence of toxicity up to the limits of solubility,0.5,more effective than AmB,no deaths observed,> 500,,
"C[C@@H]1[C@H](O)[C@@H](C)/C=C/C=C/C=C/C=C/C=C/C=C/C=C/[C@H](O[C@@H]2O[C@H](C)[C@@H](O)[C@H](N)[C@@H]2O)C[C@@H]2O[C@](O)(C[C@@H](O)C[C@@H](O)[C@H](O)CC[C@@H](O)C[C@@H](O)CC(=O)O[C@H]1C)C[C@H](O)[C@H]2C(=O)O [AmB, amphotericin B]",,significant increase in net exotherm,,,,,,2.4 µM,,,,,died within seconds,8.5
